Molecules are shown by their SMILES. Some results are limits rather than exact numbers.

The first test has as its target T1, Ba/F3 cells overexpressing the p210^Bcr-Abl-T315I theramutein (Homo sapiens, UniProt P00519, T315I, cells depend on it).
T1 construct: fused on or other part: P11274 (Breakpoint cluster region protein)
Nature of the test: phenoresponse-based cellular assay (cell count/viability), Ba/F3 T315I test cells. The following applies: FIG. 17. The arrangement: species or system murine.
Turning to `O=C(Nc1cccc(C(F)(F)F)c1)c1cccc(/C=N/Nc2ncc(F)c(N3CCOCC3)n2)n1` [Example C2-122], the “relative potency in the phenoresponse-based assay” value is reported as “less potent than several of the other compounds tested”.

Staying with this test, now noted: T315I vs control Ba/F3 cells, FIG. 1.
For `Oc1c(Cl)cc(Br)cc1/C=N\Nc1ncc(F)c(N2CCOCC2)n1` [Example C2], the “concentration showing the largest specificity gap within the dose-response series” value is recorded as 500 nM.

Still in this test, the particulars now being: read-out: T315I (IC50 activity category, growth inhibition by 50%); Ba/F3 T315I cell line.
For the molecule `Oc1ccccc1/C=N/Nc1ncc(F)c(N2CCOCC2)n1`, the GI50 is below 10 µM.
The same measure, in the same setting: next, `Fc1cnc(N/N=C/c2ccccn2)nc1N1CCOCC1`: below 1 µM.
On the same count and under the same terms, next, `Oc1ccc(Br)cc1/C=N/Nc1ncc(F)c(N2CCOCC2)n1`: below 1 µM.
As for `Cc1ccccc1/C=N/Nc1ncc(F)c(N2CCOCC2)n1`, the GI50 is above 10 µM.
On the same count and under the same terms, in the case of `Cc1ccc(/C=N/Nc2ncc(F)c(N3CCOCC3)n2)cc1` it was above 10 µM; in that of `Fc1cnc(N/N=C/c2ccccc2)nc1N1CCOCC1`, above 10 µM.
The same measure, in the same setting: next, `O=C(Nc1cccc(C(F)(F)F)c1)c1cc(Cl)c(O)c(/C=N\Nc2ncc(F)c(N3CCOCC3)n2)c1`: below 1 µM; `O=C(Nc1cccc(C(F)(F)F)c1)c1ccc(/C=N/Nc2ncc(F)c(N3CCOCC3)n2)nc1`: below 1 µM; `Fc1cnc(N/N=C/c2ccc(-c3cccc(C(F)(F)F)c3)cn2)nc1N1CCOCC1`: below 1 µM.
Still for that read-out and setting: next, `Cc1cccc(Cl)c1NC(=O)C/C=N/Nc1ncc(F)c(N2CCOCC2)n1`: above 10 µM; `Fc1cnc(N/N=C/c2ccc(Nc3ccc(N4CCOCC4)cc3)cn2)nc1N1CCOCC1`: below 1 µM; `Fc1cnc(N/N=C/c2ccc(Nc3ccc(-c4ccccn4)c(Cl)c3)cn2)nc1N1CCOCC1`: below 1 µM.
Regarding `CC(C(=O)O)c1ccc(Nc2ccc(/C=N/Nc3ncc(F)c(N4CCOCC4)n3)nc2)cc1` (stereo not shown), the GI50 was above 10 µM.
In the case of `Fc1cnc(N/N=C/c2ccc(Nc3cccc(-n4ccnc4)c3)cn2)nc1N1CCOCC1`, the GI50 was below 1 µM.
Still for that read-out and setting: in the case of `Cc1cc(Nc2ccc(/C=N/Nc3ncc(F)c(N4CCOCC4)n3)nc2)cc(N2CCNCC2)c1` it was below 1 µM; in that of `O=C(NNc1ncc(F)c(N2CCOCC2)n1)c1ccc(Nc2cccc(C(F)(F)F)c2)cn1`, below 1 µM.
The same measure, in the same setting: in the case of `Cc1cc(Nc2cccc(C(F)(F)F)c2)ccc1/C=N/Nc1ncc(F)c(N2CCOCC2)n1` it was above 10 µM.
Still for that read-out and setting: in the case of `CN(C)c1cc(O)cc(Nc2ccc(/C=N/Nc3ncc(F)c(N4CCOCC4)n3)nc2)c1` it was below 1 µM; in that of `Fc1cnc(N/N=C/c2ccc(Nc3cccc(C(F)(F)F)c3)cn2)nc1-c1cncc(-c2ccccc2)c1`, below 1 µM; in that of `Fc1cnc(N/N=C/c2ccc(Nc3cccc(C(F)(F)F)c3)cn2)nc1-c1cncc(C2CC2)c1`, below 10 µM.
With `Oc1cccc(Nc2cccc(Nc3ccc(/C=N/Nc4ncc(F)c(N5CCOCC5)n4)nc3)c2)c1`, the GI50 is below 1 µM.
Same read-out and setting: in the case of `O=C(Nc1cccc(C(F)(F)F)c1)c1cccc(/C=N/Nc2ncc(F)c(N3CCOCC3)n2)n1` [drawing 209] it was above 10 µM.

The subject of a further test is P210 T315I mutant kinase domain (120 Kd). Nature of the test: cell-free purified protein kinase autophosphorylation assay, T315I kinase domain. Format: biochemical, human. The following applies: 20 μM cell-free, FIGS. 17 and 18. How it is done: Each of the compounds was also tested in a standard cell free protein kinase autophosphorylation assay at a concentration of 20 μM as shown in FIG. 18.
As for `O=C(Nc1cccc(C(F)(F)F)c1)c1cccc(/C=N/Nc2ncc(F)c(N3CCOCC3)n2)n1` [Example C2-122], the “relative potency, cell-free assay vs phenoresponse-based cellular assay” value is “more potent in the cell-free assay than in the phenoresponse-based cellular system”.
